Source: ChEMBL document CHEMBL4390652, “Design, biological evaluation and X-ray crystallography of nanomolar multifunctional ligands targeting simultaneously acetylcholinesterase and glycogen synthase kinase-3” (Eur J Med Chem, 2019)

Tests used:
[1] = target: Dual specificity mitogen-activated protein kinase kinase 7 (Homo sapiens) (UniProt O14733); assay: Binding affinity to wild-type human full length MKK7 (M1 to R419 residues) expressed in mammalian expression system assessed as residual binding level at 10 uM by Kinomescan method relative to control
[2] = target: Atypical kinase COQ8B, mitochondrial (Homo sapiens) (UniProt Q96D53); assay: Binding affinity to wild-type human full length ADCK4 (M1 to S544 residues) expressed in bacterial expression system assessed as residual binding level at 10 uM by Kinomescan method relative to control
[3] = test system: Tyrosine-protein kinase ABL1 (Homo sapiens), P00519 [E255K]; assay: Binding affinity to human phosphorylated ABL1 E255K mutant (S229 to K512 residues) expressed in mammalian expression system assessed as residual binding level at 10 uM by Kinomescan method relative to control
[4] = target: Serine/threonine-protein kinase 26 (Homo sapiens) (UniProt Q9P289); assay: Binding affinity to wild-type human full length MST4 (M1 to P416 residues) expressed in mammalian expression system assessed as residual binding level at 10 uM by Kinomescan method relative to control
[5] = target: Dual specificity protein kinase CLK4 (Homo sapiens) (UniProt Q9HAZ1); assay: Binding affinity to wild-type human partial length CLK4 (R135 to K481 residues) expressed in bacterial expression system assessed as residual binding level at 10 uM by Kinomescan method relative to control
[6] = target: Receptor-interacting serine/threonine-protein kinase 4 (Homo sapiens) (UniProt P57078); assay: Binding affinity to wild-type human partial length RIPK4 (M1 to V303 residues) expressed in mammalian expression system assessed as residual binding level at 10 uM by Kinomescan method relative to control
[7] = target: Ribosomal protein S6 kinase alpha-6 (Homo sapiens) (UniProt Q9UK32); assay: Binding affinity to wild-type human partial length C-terminal RSK4 kinase domain 2 (I401 to Y711 residues) expressed in bacterial expression system assessed as residual binding level at 10 uM by Kinomescan method relative to control
[8] = target: Mitogen-activated protein kinase kinase kinase 10 (Homo sapiens) (UniProt Q02779); assay: Binding affinity to wild-type human partial length MLK2 (V52 to W380 residues) expressed in bacterial expression system assessed as residual binding level at 10 uM by Kinomescan method relative to control
[9] = target: Serine/threonine-protein kinase 10 (Homo sapiens) (UniProt O94804); assay: Binding affinity to wild-type human partial length LOK (E16 to V314 residues) expressed in bacterial expression system assessed as residual binding level at 10 uM by Kinomescan method relative to control
[10] = test system: Proto-oncogene tyrosine-protein kinase receptor Ret (Homo sapiens), P07949 [V804M]; assay: Binding affinity to human partial length RET V804M mutant (E713 to D1014 residues) expressed in bacterial expression system assessed as residual binding level at 10 uM by Kinomescan method relative to control
[11] = target: Dual specificity mitogen-activated protein kinase kinase 4 (Homo sapiens) (UniProt P45985); assay: Binding affinity to wild-type human partial length MEK4 (S84 to D399 residues) expressed in mammalian expression system assessed as residual binding level at 10 uM by Kinomescan method relative to control
[12] = target: Phosphatidylinositol 4-phosphate 5-kinase type-1 gamma (Homo sapiens) (UniProt O60331); assay: Binding affinity to wild-type human partial length PIP5K1C (M1 to T668 residues) expressed in mammalian expression system assessed as residual binding level at 10 uM by Kinomescan method relative to control
[13] = target: Serine/threonine-protein kinase D3 (Homo sapiens) (UniProt O94806); assay: Binding affinity to wild-type human partial length PRKD3 (S543 to E863 residues) expressed in bacterial expression system assessed as residual binding level at 10 uM by Kinomescan method relative to control
[14] = target: Calcium/calmodulin-dependent protein kinase type II subunit gamma (Homo sapiens) (UniProt Q13555); assay: Binding affinity to wild-type human partial length CAMK2G (R9 to A303 residues) expressed in bacterial expression system assessed as residual binding level at 10 uM by Kinomescan method relative to control
[15] = test system: Mast/stem cell growth factor receptor Kit (Homo sapiens), P10721 [V559D,T670I]; assay: Binding affinity to human partial length KIT V559D/T670I double mutant (Y545 to D952 residues) expressed in bacterial expression system assessed as residual binding level at 10 uM by Kinomescan method relative to control
[16] = target: Ribosomal protein S6 kinase alpha-4 (Homo sapiens) (UniProt O75676); assay: Binding affinity to wild-type human partial length C-terminal RPS6KA4 kinase domain 2 (M375 to T705 residues) expressed in mammalian expression system assessed as residual binding level at 10 uM by Kinomescan method relative to control
[17] = target: Serine/threonine-protein kinase pim-2 (Homo sapiens) (UniProt Q9P1W9); assay: Binding affinity to wild-type human partial length PIM2 (M1 to E291 residues) expressed in bacterial expression system assessed as residual binding level at 10 uM by Kinomescan method relative to control
[18] = target: Receptor-type tyrosine-protein kinase FLT3 (Homo sapiens) (UniProt P36888); assay: Binding affinity to wild-type human partial length FLT3 (V592 to Y969 residues) expressed in bacterial expression system assessed as residual binding level at 10 uM by Kinomescan method relative to control
[19] = target: 5'-AMP-activated protein kinase catalytic subunit alpha-1 (Homo sapiens) (UniProt Q13131); assay: Binding affinity to wild-type human partial length AMPK alpha1 (M1 to E306 residues) expressed in bacterial expression system assessed as residual binding level at 10 uM by Kinomescan method relative to control
[20] = target: RAC-beta serine/threonine-protein kinase (Homo sapiens) (UniProt P31751); assay: Binding affinity to wild-type human partial length AKT2 expressed in bacterial expression system assessed as residual binding level at 10 uM by Kinomescan method relative to control
[21] = target: Serine/threonine-protein kinase D2 (Homo sapiens) (UniProt Q9BZL6); assay: Binding affinity to wild-type human partial length PRKD2 (A519 to E838 residues) expressed in bacterial expression system assessed as residual binding level at 10 uM by Kinomescan method relative to control
[22] = target: Ribosomal protein S6 kinase alpha-3 (Homo sapiens) (UniProt P51812); assay: Binding affinity to wild-type human partial length C-terminal RSK2 kinase domain 2 (V402 to S715 residues) expressed in mammalian expression system assessed as residual binding level at 10 uM by Kinomescan method relative to control
[23] = target: Protein-tyrosine kinase 6 (Homo sapiens) (UniProt Q13882); assay: Binding affinity to wild-type human partial length BRK (L166 to T451 residues) expressed in bacterial expression system assessed as residual binding level at 10 uM by Kinomescan method relative to control
[24] = target: LIM domain kinase 1 (Homo sapiens) (UniProt P53667); assay: Binding affinity to wild-type human full length LIMK1 (M1 to D647 residues) expressed in bacterial expression system assessed as residual binding level at 10 uM by Kinomescan method relative to control

Chain of Ribosomal protein S6 kinase alpha-4 (Homo sapiens) (O75676 whole entry, looked up, the tested form may be a part): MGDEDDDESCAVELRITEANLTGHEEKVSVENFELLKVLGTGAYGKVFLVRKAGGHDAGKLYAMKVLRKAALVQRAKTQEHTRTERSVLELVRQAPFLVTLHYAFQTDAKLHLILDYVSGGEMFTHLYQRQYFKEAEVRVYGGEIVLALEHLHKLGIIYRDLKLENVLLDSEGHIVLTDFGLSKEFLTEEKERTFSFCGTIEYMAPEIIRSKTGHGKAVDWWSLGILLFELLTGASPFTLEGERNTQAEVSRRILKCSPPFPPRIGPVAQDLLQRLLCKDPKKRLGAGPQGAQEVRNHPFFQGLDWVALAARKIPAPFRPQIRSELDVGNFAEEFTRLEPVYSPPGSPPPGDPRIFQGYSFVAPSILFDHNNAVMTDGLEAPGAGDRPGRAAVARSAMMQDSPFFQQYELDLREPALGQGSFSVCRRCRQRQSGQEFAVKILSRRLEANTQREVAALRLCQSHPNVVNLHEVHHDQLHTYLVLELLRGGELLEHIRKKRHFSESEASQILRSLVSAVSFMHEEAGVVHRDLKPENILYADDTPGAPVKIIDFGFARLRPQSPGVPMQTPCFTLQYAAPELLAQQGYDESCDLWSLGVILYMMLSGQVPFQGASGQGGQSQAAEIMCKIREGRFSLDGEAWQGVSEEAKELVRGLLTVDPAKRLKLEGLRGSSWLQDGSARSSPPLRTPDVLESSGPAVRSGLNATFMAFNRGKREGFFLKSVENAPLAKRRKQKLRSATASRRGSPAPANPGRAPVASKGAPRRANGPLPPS
Chain of Protein-tyrosine kinase 6 (Homo sapiens) (Q13882 whole entry, looked up, the tested form may be a part): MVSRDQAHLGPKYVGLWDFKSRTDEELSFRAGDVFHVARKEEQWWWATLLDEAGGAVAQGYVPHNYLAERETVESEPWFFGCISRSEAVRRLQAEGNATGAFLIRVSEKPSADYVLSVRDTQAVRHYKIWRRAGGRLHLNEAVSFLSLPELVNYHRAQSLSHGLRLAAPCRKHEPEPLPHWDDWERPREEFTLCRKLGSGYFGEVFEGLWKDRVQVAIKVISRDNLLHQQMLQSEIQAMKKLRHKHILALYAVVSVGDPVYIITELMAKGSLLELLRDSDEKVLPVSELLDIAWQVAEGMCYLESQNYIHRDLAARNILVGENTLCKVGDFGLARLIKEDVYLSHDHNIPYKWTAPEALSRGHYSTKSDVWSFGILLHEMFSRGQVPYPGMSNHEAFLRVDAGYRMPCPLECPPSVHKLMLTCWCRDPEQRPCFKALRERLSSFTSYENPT
Chain of Dual specificity mitogen-activated protein kinase kinase 7 (Homo sapiens) (O14733 whole entry, the tested form may be a part): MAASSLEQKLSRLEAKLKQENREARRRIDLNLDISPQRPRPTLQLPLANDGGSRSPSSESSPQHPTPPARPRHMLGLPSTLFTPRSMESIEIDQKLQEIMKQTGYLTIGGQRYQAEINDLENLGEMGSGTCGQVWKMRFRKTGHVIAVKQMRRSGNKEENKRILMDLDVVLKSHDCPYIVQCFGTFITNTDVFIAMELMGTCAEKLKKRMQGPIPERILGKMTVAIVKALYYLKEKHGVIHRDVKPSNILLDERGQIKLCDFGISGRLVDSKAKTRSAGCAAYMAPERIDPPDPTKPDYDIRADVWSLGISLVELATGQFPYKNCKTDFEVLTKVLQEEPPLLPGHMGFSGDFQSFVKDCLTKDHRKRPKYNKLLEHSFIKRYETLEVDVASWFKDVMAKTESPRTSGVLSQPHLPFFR
Chain of Phosphatidylinositol 4-phosphate 5-kinase type-1 gamma (Homo sapiens) (O60331 whole entry, the tested form may be a part): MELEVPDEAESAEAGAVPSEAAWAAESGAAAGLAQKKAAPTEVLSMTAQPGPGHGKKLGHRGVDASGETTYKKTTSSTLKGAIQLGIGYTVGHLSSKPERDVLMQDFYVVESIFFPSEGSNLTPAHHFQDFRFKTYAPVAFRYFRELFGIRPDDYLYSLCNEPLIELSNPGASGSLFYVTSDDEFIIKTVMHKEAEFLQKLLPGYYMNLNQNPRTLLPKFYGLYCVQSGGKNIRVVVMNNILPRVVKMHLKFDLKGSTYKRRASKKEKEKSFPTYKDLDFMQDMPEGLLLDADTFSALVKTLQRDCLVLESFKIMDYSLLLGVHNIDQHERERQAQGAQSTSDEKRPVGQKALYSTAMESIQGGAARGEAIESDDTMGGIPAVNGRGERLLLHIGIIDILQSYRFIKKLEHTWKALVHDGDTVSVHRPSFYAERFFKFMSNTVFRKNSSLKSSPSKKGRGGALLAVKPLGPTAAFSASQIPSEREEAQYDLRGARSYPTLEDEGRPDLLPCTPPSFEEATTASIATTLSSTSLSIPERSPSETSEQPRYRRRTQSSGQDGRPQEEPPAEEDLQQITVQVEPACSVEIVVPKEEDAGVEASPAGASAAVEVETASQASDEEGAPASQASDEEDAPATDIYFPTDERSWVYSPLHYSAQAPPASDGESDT
Chain of Serine/threonine-protein kinase D2 (Homo sapiens) (Q9BZL6 whole entry, the tested form may be a part): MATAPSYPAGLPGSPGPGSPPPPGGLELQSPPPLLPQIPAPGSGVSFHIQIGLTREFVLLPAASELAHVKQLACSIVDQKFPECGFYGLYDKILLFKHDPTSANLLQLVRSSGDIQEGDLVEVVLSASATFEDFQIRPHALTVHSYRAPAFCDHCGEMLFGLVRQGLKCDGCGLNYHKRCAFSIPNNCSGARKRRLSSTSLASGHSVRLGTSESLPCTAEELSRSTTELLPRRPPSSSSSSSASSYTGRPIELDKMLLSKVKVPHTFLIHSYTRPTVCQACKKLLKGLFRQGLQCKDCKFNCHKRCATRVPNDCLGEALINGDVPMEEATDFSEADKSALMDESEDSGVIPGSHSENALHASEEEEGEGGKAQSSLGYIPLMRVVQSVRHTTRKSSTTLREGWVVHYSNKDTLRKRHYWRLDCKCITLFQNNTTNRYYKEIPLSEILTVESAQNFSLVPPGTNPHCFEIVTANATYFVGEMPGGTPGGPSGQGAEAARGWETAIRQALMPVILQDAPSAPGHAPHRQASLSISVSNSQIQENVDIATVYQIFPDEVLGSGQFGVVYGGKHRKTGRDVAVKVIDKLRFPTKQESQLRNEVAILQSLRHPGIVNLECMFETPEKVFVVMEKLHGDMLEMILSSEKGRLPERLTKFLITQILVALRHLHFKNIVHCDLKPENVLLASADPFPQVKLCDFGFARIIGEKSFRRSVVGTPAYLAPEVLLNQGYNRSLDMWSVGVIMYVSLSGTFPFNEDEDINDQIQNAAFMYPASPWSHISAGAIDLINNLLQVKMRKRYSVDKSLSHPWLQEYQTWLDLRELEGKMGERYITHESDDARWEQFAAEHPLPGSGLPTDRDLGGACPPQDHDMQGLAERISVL
Chain of RAC-beta serine/threonine-protein kinase (Homo sapiens) (P31751 whole entry, the tested form may be a part): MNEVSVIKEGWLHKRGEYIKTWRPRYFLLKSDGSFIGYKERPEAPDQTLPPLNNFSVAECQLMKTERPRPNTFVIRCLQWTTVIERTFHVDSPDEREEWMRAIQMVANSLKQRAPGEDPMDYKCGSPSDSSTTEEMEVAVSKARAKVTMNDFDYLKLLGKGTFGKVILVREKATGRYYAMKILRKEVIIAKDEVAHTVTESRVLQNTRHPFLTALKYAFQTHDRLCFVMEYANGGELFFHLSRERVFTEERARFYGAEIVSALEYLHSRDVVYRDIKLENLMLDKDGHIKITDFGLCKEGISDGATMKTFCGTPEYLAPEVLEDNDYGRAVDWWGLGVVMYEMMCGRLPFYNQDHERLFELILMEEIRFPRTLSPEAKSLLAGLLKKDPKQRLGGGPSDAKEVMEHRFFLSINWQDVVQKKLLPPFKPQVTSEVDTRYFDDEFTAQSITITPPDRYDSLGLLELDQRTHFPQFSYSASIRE
Chain of Serine/threonine-protein kinase 10 (Homo sapiens) (O94804 whole entry, looked up, the tested form may be a part): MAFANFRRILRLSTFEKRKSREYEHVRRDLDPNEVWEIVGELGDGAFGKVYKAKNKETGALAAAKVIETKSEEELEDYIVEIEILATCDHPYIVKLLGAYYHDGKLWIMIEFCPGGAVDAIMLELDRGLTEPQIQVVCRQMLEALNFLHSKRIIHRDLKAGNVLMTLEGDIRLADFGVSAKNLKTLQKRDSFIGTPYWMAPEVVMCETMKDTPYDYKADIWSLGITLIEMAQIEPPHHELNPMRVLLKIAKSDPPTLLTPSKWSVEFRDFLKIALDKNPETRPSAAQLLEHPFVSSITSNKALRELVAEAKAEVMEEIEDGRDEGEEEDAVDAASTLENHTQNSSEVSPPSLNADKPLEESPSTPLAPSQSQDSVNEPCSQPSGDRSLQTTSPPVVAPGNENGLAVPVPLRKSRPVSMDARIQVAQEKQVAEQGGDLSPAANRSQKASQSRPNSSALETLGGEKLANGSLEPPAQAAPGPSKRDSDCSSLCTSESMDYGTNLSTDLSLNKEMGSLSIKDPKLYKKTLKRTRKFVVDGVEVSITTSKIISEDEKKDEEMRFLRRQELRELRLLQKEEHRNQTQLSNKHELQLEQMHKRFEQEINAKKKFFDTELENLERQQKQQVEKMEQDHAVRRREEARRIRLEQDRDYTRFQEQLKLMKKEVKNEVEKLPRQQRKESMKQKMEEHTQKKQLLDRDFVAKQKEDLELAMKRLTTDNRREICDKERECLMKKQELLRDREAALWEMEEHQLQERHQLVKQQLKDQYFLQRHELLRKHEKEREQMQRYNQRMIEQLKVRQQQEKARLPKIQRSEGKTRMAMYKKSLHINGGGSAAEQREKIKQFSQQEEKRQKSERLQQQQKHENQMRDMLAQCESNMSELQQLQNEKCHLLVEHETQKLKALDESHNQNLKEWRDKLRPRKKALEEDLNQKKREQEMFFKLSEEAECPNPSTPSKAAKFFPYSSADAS
Chain of Serine/threonine-protein kinase 26 (Homo sapiens) (Q9P289 2-416 limits assumed): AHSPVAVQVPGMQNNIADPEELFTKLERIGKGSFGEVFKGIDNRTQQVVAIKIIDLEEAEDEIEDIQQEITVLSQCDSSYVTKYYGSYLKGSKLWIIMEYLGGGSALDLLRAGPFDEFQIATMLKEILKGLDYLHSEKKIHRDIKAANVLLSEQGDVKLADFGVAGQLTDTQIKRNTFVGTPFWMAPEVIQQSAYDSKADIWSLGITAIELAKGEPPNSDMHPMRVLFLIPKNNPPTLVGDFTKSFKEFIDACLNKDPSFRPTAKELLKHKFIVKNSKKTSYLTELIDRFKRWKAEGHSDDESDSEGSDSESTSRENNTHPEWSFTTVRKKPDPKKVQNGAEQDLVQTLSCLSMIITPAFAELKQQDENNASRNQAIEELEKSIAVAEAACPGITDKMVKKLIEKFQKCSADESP

## O=C(Nc1cc(-c2cn(CCNc3c4c(nc5ccccc35)CCCC4)nn2)ccn1)Nc1cccc2c1C1CCCCN1C2=O (racemic)
[1]
  Activity: 100%
[2]
  Activity: 77%
[3]
  Activity: 1.8%
[4]
  Activity: 62%
[5]
  Activity: 2.8%
[6]
  Activity: 30%
[7]
  Activity: 57%
[8]
  Activity: 58%
[9]
  Activity: 99%
[10]
  Activity: 13%
[11]
  Activity: 100%
[12]
  Activity: 100%
[13]
  Activity: 12%
[14]
  Activity: 64%
[15]
  Activity: 3.4%
[16]
  Activity: 69%
[17]
  Activity: 16%
[18]
  Activity: 0.55%
[19]
  Activity: 31%
[20]
  Activity: 80%
[21]
  Activity: 31%
[22]
  Activity: 100%
[23]
  Activity: 90%
[24]
  Activity: 100%
